What was measured:
[1] = Fraction unbound in 20-fold diluted brain homogenate, equilibrium dialysis; conditions: for fraction unbound at 5 h, 1 μM: Göttingen, minipig, pH 7.4; for Predicted fu (%) Brain (D = 20): calculated with Eq. 2 from fu measured in 100% matrices (ref 20), dilution factor 20
P-gp (human MDR1) [2] = experiment: Equilibrium distribution study (in vitro Kp,brain / Kp,uu,brain) across MDCKII-MDR1 cells, BSA apical, brain homogenate basolateral, Uni-L and Bi-L; conditions: dog; for Kp at 29 h, 1 μM: brain homogenate/BSA ratio
P-gp (human MDR1) [3] = experiment: in vitro; conditions: dog
[4] = cited from earlier work; for Kp,uu,brain in vivo: Göttingen minipig
[5] = biological target: T1, Bovine Serum Albumin (BSA) (Bos taurus, UniProt P02769); experiment: Fraction unbound in 35 μM BSA, equilibrium dialysis; conditions: for fraction unbound at 5 h, 1 μM: bovine; for Predicted fu (%) BSA 35 μM (D = 20): calculated with Eq. 2 from fu measured in 100% matrices (ref 20), dilution factor 20
T1 sequence (P02769 25-607): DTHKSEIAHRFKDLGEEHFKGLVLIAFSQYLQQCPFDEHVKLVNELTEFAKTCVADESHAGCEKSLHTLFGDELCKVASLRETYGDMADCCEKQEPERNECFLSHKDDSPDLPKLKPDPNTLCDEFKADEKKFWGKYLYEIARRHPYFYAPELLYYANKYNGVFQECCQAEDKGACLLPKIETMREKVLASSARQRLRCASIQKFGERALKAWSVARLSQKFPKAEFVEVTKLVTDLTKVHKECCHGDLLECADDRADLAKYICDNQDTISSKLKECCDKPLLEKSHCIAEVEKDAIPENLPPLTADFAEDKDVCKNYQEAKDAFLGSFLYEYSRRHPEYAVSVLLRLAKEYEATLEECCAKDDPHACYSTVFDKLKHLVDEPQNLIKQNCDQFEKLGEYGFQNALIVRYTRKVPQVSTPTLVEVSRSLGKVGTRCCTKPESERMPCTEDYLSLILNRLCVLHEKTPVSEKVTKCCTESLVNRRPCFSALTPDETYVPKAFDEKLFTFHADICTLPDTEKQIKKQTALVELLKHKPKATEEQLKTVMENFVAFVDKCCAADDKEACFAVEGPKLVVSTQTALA

[6] = biological target: T1, Bovine Serum Albumin (BSA); experiment: Fraction unbound in 700 μM BSA in phosphate buffer; assay type: in vitro ADME; parameters: BSA (purity > 98%) was obtained from Beijing SeaskyBio Technology Co. Ltd; purchased Beijing SeaskyBio Technology Co. Ltd. BSAS (Lot 541); conditions: read-out: fu, 700 μM BSA
MDCKII-MDR1 cell line = tested on: MDCKII-MDR1 cell line; parameters: method as in PMID 34756975, PMID 15236458; conditions: cited from earlier work
[7] = MDCK-MDR1, pH 7.5, in vitro determined Kp,brain Bi-L, Bi-L (compound loaded both sides), 29 h
[8] = MDCK-MDR1, pH 7.5, in vitro determined Kp,brain Uni-L, Uni-L (compound loaded apically in BSA), 29 h
[9] = pH 7.5, Recovery Bi-L, mass balance Eq. 7, Bi-L, 29 h, % printed
[10] = pH 7.5, Recovery Uni-L, mass balance Eq. 6, Uni-L, 29 h, % printed
[11] = 20-fold diluted brain homogenate
[12] = pH 7.5, assay recovery, equilibrium distribution experiment, setup (Uni-L/Bi-L) not given
[13] = MDCK-MDR1, pH 7.4, with an inhibitor present (name and concentration not stated)

NCC1(CC(=O)O)CCCCC1 [Gabapentin, gabapentin]
fraction unbound at 5 h, 1 μM ([1]; brain homogenate): 0.946 ± 0.015 | Predicted fu (%) Brain (D = 20) [1]: 93.4% | Kp at 29 h, 1 μM (P-gp (human MDR1) [2]; [7]): 0.9 | Kp at 29 h, 1 μM (P-gp (human MDR1) [2]; [8]): 0.11 | recovery at 29 h, 1 μM (P-gp (human MDR1) [2]; [9]): 86% | recovery at 29 h, 1 μM (P-gp (human MDR1) [2]; [10]): 85% | Papp B→A at 60 min, 0.5 μM (P-gp (human MDR1) [3]; MDCK-MDR1, pH 7.4): 1.6 ± 0.2 ×10⁻⁶ cm/s | efflux ratio at 60 min, 0.5 μM (P-gp (human MDR1) [3]; MDCK-MDR1, pH 7.4): 0.5 | Kp,uu,brain in vivo [4]: 0.13 | fraction unbound at 5 h, 1 μM ([5]; isolated protein): 0.984 ± 0.062 | Predicted fu (%) BSA 35 μM (D = 20) [5]: 99.8%

COc1ccc2c(c1)c(CC(=O)O)c(C)n2C(=O)c1ccc(Cl)cc1 [Indomethacin, indomethacin]
fraction unbound at 5 h, 1 μM [1, 11]: 0.358 ± 0.08 | Predicted fu (%) Brain (D = 20) [1]: 42.8% | Kp uu at 29 h, 1 μM (P-gp (human MDR1) [2]; MDCK-MDR1, pH 7.5): ≥ 1 | Kp at 29 h, 1 μM (P-gp (human MDR1) [2]; [7]): 0.78 | Kp at 29 h, 1 μM (P-gp (human MDR1) [2]; [8]): 0.88 | recovery at 29 h, 1 μM (P-gp (human MDR1) [2]; [9]): 69% | recovery at 29 h, 1 μM (P-gp (human MDR1) [2]; [10]): 73% | Papp B→A at 60 min, 0.5 μM (P-gp (human MDR1) [3]; MDCK-MDR1, pH 7.4): 2.7 ± 0.3 ×10⁻⁶ cm/s | Kp,uu,brain in vivo [4]: 0.13

CCN(CC)CCNC(=O)c1cc(Cl)c(N)cc1OC [Metoclopramide, metoclopramide]
fraction unbound at 5 h, 1 μM [6]: 0.904 | fraction unbound at 5 h, 1 μM [1, 11]: 0.878 ± 0.038 | Predicted fu (%) Brain (D = 20) [1]: 90.7% | Kp at 29 h, 1 μM (P-gp (human MDR1) [2]; [7]): 0.96 | Kp at 29 h, 1 μM (P-gp (human MDR1) [2]; [8]): 1 | recovery at 29 h, 1 μM (P-gp (human MDR1) [2]; [9]): 66% | recovery at 29 h, 1 μM (P-gp (human MDR1) [2]; [10]): 66% | Papp B→A at 60 min, 0.5 μM (P-gp (human MDR1) [3]; MDCK-MDR1, pH 7.4): 49 ± 3 ×10⁻⁶ cm/s | efflux ratio at 60 min, 0.5 μM (P-gp (human MDR1) [3]; MDCK-MDR1, pH 7.4): 2 | fraction unbound at 5 h, 1 μM ([5]; 35 μM BSA): > 1 | Predicted fu (%) BSA 35 μM (D = 20) [5]: 98.8%

Clc1ccc2c(c1)N=C(N1CCNCC1)c1ccccc1N2 [N-desmethylclozapine]
fraction unbound at 5 h, 1 μM [1, 11]: 0.131 ± 0.006 | Predicted fu (%) Brain (D = 20) [1]: 13.9% | Kp at 29 h, 1 μM (P-gp (human MDR1) [2]; [7]): 4.2 | Kp at 29 h, 1 μM (P-gp (human MDR1) [2]; [8]): 4.2 | recovery at 29 h, 1 μM (P-gp (human MDR1) [2]; [9]): 53% | recovery at 29 h, 1 μM (P-gp (human MDR1) [2]; [10]): 62% | recovery at 29 h, 1 μM (P-gp (human MDR1) [2]; [12]): ~50% | Papp B→A at 60 min, 0.5 μM (P-gp (human MDR1) [3]; MDCK-MDR1, pH 7.4): 4.4 ± 0.3 ×10⁻⁶ cm/s | efflux ratio at 60 min, 0.5 μM (P-gp (human MDR1) [3]; MDCK-MDR1, pH 7.4): 2.1 | Papp A→B at 60 min, 0.5 μM (P-gp (human MDR1) [3]; [13]): 3.6 ×10⁻⁶ cm/s | Papp B→A at 60 min, 0.5 μM (P-gp (human MDR1) [3]; [13]): 2.9 ×10⁻⁶ cm/s | classification of brain penetration in vivo ([4]; Göttingen minipig Kp,uu,brain): unrestricted (unrestricted brain penetration with Kp,uu,brain > 0.7) | Kp,uu,brain in vivo [4]: 0.71 | fraction unbound at 5 h, 1 μM ([5]; 35 μM BSA): 0.892 ± 0.029 | Predicted fu (%) BSA 35 μM (D = 20) [5]: 82.1%

CC(C)NCC(O)COc1cccc2ccccc12 (centres unmarked) [Propranolol, propranolol]
fraction unbound at 5 h, 1 μM [1, 11]: 0.35 ± 0.012 | Predicted fu (%) Brain (D = 20) [1]: 37.4% | Kp at 29 h, 1 μM (P-gp (human MDR1) [2]; [7]): 1.9 | Kp at 29 h, 1 μM (P-gp (human MDR1) [2]; [8]): 2.2 | recovery at 29 h, 1 μM (P-gp (human MDR1) [2]; [9]): 21% | recovery at 29 h, 1 μM (P-gp (human MDR1) [2]; [10]): 25% | recovery at 29 h, 1 μM (P-gp (human MDR1) [2]; [12]): ~20% | Papp B→A at 60 min, 0.5 μM (P-gp (human MDR1) [3]; MDCK-MDR1, pH 7.4): 3.7 ± 0.1 ×10⁻⁶ cm/s | efflux ratio at 60 min, 0.5 μM (P-gp (human MDR1) [3]; MDCK-MDR1, pH 7.4): 0.8 | Kp,uu,brain in vivo [4]: 0.76 | fraction unbound at 5 h, 1 μM ([5]; 35 μM BSA): 0.897 ± 0.018 | Predicted fu (%) BSA 35 μM (D = 20) [5]: 86.8%

COc1ccccc1N1CCN(CCN(C(=O)C2CCCCC2)c2ccccn2)CC1 [Way-100635]
Kp,uu,brain in Vitro Uni-L (Det. fu) (MDCKII-MDR1 cells): 1.09 | Kp,uu,brain in Vitro Uni-L (Pre.fu) (MDCKII-MDR1 cells): 0.96 | assay recovery, equilibrium distribution experiment (MDCKII-MDR1 cells): around 50% | in vitro Kp,uu,brain (MDCKII-MDR1 cells; dog, MDCK-MDR1): ~ 1 | Determined fu (%) Brain (D = 20) ([1]; 20-fold diluted brain homogenate, 1 μM, 5 h, 37 ℃, Eq. 1, mean ± SD N=3): 74.8 ± 8.0% | Predicted fu (%) Brain (D = 20) [1]: 71.8% | Kp,uu,brain in vivo [4]: 0.40 | Determined fu (%) BSA 35 μM (D = 20) ([5]; 35 μM BSA, 1 μM, 5 h, 37 ℃, Eq. 1, mean ± SD N=3): 80.2 ± 0.9% | Predicted fu (%) BSA 35 μM (D = 20) [5]: 87.1%

OC[C@@H](O)[C@@H](O)[C@H](O)[C@H](O)CO [mannitol]
mannitol flux (MDCKII-MDR1 cell line): 1–7 10^–7 cm/s

From paper PMC10809502, “Application of a new MDCKII-MDR1 cell model to measure the extent of drug distribution in vitro at equilibrium for prediction of in vivo unbound brain-to-plasma drug distribution” (Fluids and Barriers of the CNS, 2024)
